Measured values: patent publication US8541588B2, “Sulfonamide derivatives” (Pfizer Limited, priority 2009, dated 2013)

These molecules were tested against T1, Nav1.7 (or SCN9A) channel; HEK cells stably transfected with hSCN9A (Homo sapiens, UniProt Q15858) (assay: Nav1.7 block, PatchXpress 7000 automated whole-cell voltage clamp, estimated IC50 (EIC50)). Conditions: PatchXpress platform; hSCN9A HEK cells held at V1/2 of inactivation; estimated IC50.
T1 construct: expressed in transfected cells
T1 sequence (Q15858 whole entry): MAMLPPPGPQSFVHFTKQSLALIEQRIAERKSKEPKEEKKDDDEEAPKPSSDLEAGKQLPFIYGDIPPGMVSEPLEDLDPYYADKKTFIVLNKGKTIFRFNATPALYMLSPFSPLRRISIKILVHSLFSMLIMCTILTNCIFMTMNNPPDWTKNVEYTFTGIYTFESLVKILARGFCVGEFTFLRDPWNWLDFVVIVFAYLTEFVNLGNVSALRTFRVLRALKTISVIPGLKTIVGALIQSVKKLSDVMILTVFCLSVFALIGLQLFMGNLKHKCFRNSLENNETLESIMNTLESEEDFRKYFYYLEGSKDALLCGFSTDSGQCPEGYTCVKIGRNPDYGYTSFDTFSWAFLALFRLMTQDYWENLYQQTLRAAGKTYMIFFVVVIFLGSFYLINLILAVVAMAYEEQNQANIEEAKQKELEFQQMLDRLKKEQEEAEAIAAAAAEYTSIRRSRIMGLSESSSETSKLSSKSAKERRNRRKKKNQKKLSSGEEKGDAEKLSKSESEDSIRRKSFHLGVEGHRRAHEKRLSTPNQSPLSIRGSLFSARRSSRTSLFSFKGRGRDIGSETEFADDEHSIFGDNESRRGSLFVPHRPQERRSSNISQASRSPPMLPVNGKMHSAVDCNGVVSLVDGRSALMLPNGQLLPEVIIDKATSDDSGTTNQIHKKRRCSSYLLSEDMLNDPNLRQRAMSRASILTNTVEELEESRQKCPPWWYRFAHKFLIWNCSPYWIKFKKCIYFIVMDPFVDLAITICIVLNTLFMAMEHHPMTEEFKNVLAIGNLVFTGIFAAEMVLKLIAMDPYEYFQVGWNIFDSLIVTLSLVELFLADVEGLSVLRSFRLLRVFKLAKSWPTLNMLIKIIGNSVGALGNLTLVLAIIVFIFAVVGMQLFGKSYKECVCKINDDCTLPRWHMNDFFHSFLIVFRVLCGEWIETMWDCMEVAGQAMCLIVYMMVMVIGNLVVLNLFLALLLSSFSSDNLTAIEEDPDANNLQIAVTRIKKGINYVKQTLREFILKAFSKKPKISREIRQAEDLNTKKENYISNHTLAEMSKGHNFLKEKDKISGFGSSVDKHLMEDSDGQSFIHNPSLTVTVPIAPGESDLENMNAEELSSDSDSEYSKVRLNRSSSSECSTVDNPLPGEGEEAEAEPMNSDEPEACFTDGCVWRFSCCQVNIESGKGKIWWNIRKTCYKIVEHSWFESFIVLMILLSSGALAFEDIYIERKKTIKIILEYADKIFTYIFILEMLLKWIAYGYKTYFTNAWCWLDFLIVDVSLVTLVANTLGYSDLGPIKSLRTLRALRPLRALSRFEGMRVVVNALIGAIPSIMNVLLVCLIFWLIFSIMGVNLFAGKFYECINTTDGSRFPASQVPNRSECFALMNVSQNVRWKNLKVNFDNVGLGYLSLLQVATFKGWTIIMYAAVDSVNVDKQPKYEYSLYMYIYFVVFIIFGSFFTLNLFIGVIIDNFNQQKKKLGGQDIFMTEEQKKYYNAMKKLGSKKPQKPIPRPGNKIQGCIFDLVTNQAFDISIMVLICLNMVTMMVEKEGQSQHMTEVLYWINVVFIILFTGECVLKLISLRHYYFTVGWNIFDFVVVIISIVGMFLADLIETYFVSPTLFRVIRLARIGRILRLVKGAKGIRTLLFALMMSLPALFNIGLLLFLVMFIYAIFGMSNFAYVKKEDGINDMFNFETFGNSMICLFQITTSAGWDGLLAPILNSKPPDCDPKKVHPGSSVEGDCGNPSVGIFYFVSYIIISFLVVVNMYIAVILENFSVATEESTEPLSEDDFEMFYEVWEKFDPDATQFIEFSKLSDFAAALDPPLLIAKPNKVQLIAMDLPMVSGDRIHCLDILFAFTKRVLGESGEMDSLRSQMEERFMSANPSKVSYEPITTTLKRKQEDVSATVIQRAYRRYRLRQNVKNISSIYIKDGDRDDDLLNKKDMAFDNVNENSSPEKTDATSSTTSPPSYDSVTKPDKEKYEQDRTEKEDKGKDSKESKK
Assay type: cell-based
`N#Cc1cc(S(=O)(=O)Nc2nccs2)ccc1Oc1ccc(Cl)cc1-c1ccnn1CC(F)(F)F` [Example 177, 4-(4-chloro-2-(1-(2,2,2-trifluoroethyl)-1H-pyrazol-5-yl)phenoxy)-3-cyano-N-(thiazol-2-yl)benzenesulfonamide] was tested, and the IC50 was 100 nM. `Cn1ccc(-c2ccc(Oc3ccc(S(=O)(=O)Nc4nccs4)cc3C#N)c(Cl)c2)n1` [Example 178, 4-(2-chloro-4-(1-methyl-1H-pyrazol-3-yl)phenoxy)-3-cyano-N-(thiazol-2-yl)benzenesulfonamide] was tested, and the IC50 was 3080 nM. Molecule `Cn1nccc1-c1ccc(Oc2ccc(S(=O)(=O)Nc3nccs3)cc2C#N)c(Cl)c1` [Example 179, 4-(2-chloro-4-(1-methyl-1H-pyrazol-5-yl)phenoxy)-3-cyano-N-(thiazol-2-yl)benzenesulfonamide] has an IC50 of 2190 nM. `N#Cc1cc(S(=O)(=O)Nc2nccs2)ccc1Oc1ccccc1-c1nncn1-c1ccccc1` [Example 181, 3-cyano-4-(2-(4-phenyl-4H-1,2,4-triazol-3-yl)phenoxy)-N-(thiazol-2-yl)benzenesulfonamide] was tested, and the IC50 was >10000 nM. With `Cn1cnnc1-c1cc(Cl)ccc1Oc1ccc(S(=O)(=O)Nc2nccs2)cc1C#N` [Example 182, 4-(4-chloro-2-(4-methyl-4H-1,2,4-triazol-3-yl)phenoxy)-3-cyano-N-(thiazol-2-yl)benzenesulfonamide] the IC50 was 930 nM. Molecule `N#Cc1cc(S(=O)(=O)Nc2nccs2)ccc1Oc1ccc(-n2ccc(C(F)(F)F)n2)cc1` [Example 183, 3-cyano-N-thiazol-2-yl-4-[4-(3-trifluoromethyl-pyrazol-1-yl)-phenoxy]-benzenesulfonamide] has an IC50 of 990 nM. For `CC(C)(C)n1ccc(-c2ccc(Oc3ccc(S(=O)(=O)Nc4nccs4)cc3C#N)c(F)c2)n1` [Example 184, 4-[4-(1-tert-butyl-1H-pyrazol-3-yl)-2-fluoro-phenoxy]-3-cyano-N-thiazol-2-yl-benzenesulfonamide], the IC50 was 9170 nM. `N#Cc1cc(S(=O)(=O)Nc2nccs2)ccc1Oc1ccc(-c2cc[nH]n2)cc1F` [Example 185, 3-cyano-4-[2-fluoro-4-(1H-pyrazol-3-yl)-phenoxy]-N-thiazol-2-yl-benzenesulfonamide] was tested, and the IC50 was 33000 nM. `Cc1cc(C)n(-c2ccc(Oc3ccc(S(=O)(=O)Nc4nccs4)cc3C#N)cc2)n1` [Example 186, 3-cyano-4-[4-(3,5-dimethyl-pyrazol-1-yl)-phenoxy]-N-thiazol-2-yl-benzenesulfonamide] showed an IC50 of 1050 nM. Work on `N#Cc1cc(S(=O)(=O)Nc2nccs2)ccc1Oc1ccc(-c2ccccc2)cc1` [Example 187, 4-(biphenyl-4-yloxy)-3-cyano-N-thiazol-2-yl-benzenesulfonamide] yielded an IC50 of 1670 nM. `N#Cc1cc(S(=O)(=O)Nc2nccs2)ccc1Oc1cc(-c2ccccc2F)nn1CC(F)(F)F` [Example 188, 3-cyano-4-[5-(2-fluoro-phenyl)-2-(2,2,2-trifluoro-ethyl)-2H-pyrazol-3-yloxy]-N-thiazol-2-yl-benzenesulfonamide] gave an IC50 of 9420 nM. `N#Cc1cc(S(=O)(=O)Nc2nccs2)ccc1Oc1cc(-c2ccc(Cl)cc2)nn1CC(F)(F)F` [Example 189, 4-[5-(4-chloro-phenyl)-2-(2,2,2-trifluoro-ethyl)-2H-pyrazol-3-yloxy]-3-cyano-N-thiazol-2-yl-benzenesulfonamide] showed an IC50 of 2800 nM. `N#Cc1cc(S(=O)(=O)Nc2nccs2)ccc1Oc1cc(-c2ccccc2)nn1CC(F)(F)F` [Example 190, 3-cyano-4-[5-phenyl-2-(2,2,2-trifluoro-ethyl)-2H-pyrazol-3-yloxy]-N-thiazol-2-yl-benzenesulfonamide] gave an IC50 of 7710 nM. `N#Cc1cc(S(=O)(=O)Nc2nccs2)ccc1Oc1cc(C2CC2)nn1-c1ccccn1` [Example 191, 3-cyano-4-(5-cyclopropyl-2-pyridin-2-yl-2H-pyrazol-3-yloxy)-N-thiazol-2-yl-benzenesulfonamide] was tested, and the IC50 was >10000 nM. For `N#Cc1cc(S(=O)(=O)Nc2nccs2)ccc1Oc1cc(C2CC2)nn1C1CCCCC1` [Example 192, 3-Cyano-4-(2-cyclohexyl-5-cyclopropyl-2H-pyrazol-3-yloxy)-N-thiazol-2-yl-benzenesulfonamide], the IC50 was 2050 nM. Work on `N#Cc1cc(S(=O)(=O)Nc2nccs2)ccc1Oc1cc(C2CC2)nn1-c1ccccc1F` [Example 193, 3-cyano-4-[5-cyclopropyl-2-(2-fluoro-phenyl)-2H-pyrazol-3-yloxy]-N-thiazol-2-yl-benzenesulfonamide] yielded an IC50 of 1230 nM. `N#Cc1cc(S(=O)(=O)Nc2nccs2)ccc1Oc1cc(C2CC2)nn1CC(F)(F)F` [Example 194, 3-Cyano-4-[5-cyclopropyl-2-(2,2,2-trifluoro-ethyl)-2H-pyrazol-3-yloxy]-N-thiazol-2-yl-benzenesulfonamide] showed an IC50 of 36800 nM. Molecule `N#Cc1cc(S(=O)(=O)Nc2nccs2)ccc1Oc1cc(C2CC2)nn1-c1cc(F)ccc1F` [Example 195, 3-Cyano-4-[5-cyclopropyl-2-(2,5-difluoro-phenyl)-2H-pyrazol-3-yloxy]-N-thiazol-2-yl-benzenesulfonamide] has an IC50 of 1080 nM. `Cn1ncc(F)c1-c1cc(Cl)ccc1Oc1ccc(S(=O)(=O)Nc2nccs2)cc1C#N` [Example 196, 4-[4-Chloro-2-(4-fluoro-2-methyl-2H-pyrazol-3-yl)-phenoxy]-3-cyano-N-thiazol-2-yl-benzenesulfonamide] gave an IC50 of 30 nM. In the case of `Cc1c(Cl)ccc(Oc2ccc(S(=O)(=O)Nc3nccs3)cc2C#N)c1-c1nnco1` [Example 197, 4-(4-chloro-3-methyl-2-[1,3,4]oxadiazol-2-yl-phenoxy)-3-cyano-N-thiazol-2-yl-benzenesulfonamide], the IC50 is reported as 1130 nM. With `CC(C)(C)n1nccc1-c1c(Cl)cccc1Oc1ccc(S(=O)(=O)Nc2nccs2)cc1C#N` [Example 198, 4-[2-(2-tert-butyl-2H-pyrazol-3-yl)-3-chloro-phenoxy]-3-cyano-N-thiazol-2-yl-benzenesulfonamide] the IC50 was 2470 nM. In the case of `N#Cc1cc(S(=O)(=O)Nc2nccs2)ccc1Oc1cccc(Cl)c1-c1ccn[nH]1` [Example 199, 4-[3-chloro-2-(2H-pyrazol-3-yl)-phenoxy]-3-cyano-N-thiazol-2-yl-benzenesulfonamide], the IC50 is reported as 110 nM. `Cc1n[nH]cc1-c1ccccc1Oc1ccc(S(=O)(=O)Nc2nccs2)cc1C#N` [Example 200, 3-cyano-4-(2-(3-methyl-1H-pyrazol-4-yl)phenoxy)-N-(thiazol-2-yl)benzenesulfonamide] showed an IC50 of 100 nM. Molecule `N#Cc1cc(S(=O)(=O)Nc2nccs2)ccc1Oc1ccc(F)cc1-c1ccc(CCO)cc1` [Example 201, 3-cyano-4-{[5-fluoro-4′-(2-hydroxyethyl)biphenyl-2-yl]oxy}-N-1,3-thiazol-2-ylbenzenesulfonamide] has an IC50 of 420 nM. For `N#Cc1cc(S(=O)(=O)Nc2nccs2)ccc1Oc1ccc(-c2cc(C(F)(F)F)n[nH]2)cc1` [Example 202, 3-cyano-N-thiazol-2-yl-4-[4-(5-trifluoromethyl-2H-pyrazol-3-yl)-phenoxy]-benzenesulfonamide], the IC50 was 600 nM. Work on `NC(=O)c1cc(S(=O)(=O)Nc2nccs2)ccc1Oc1ccc(-c2cc(C(F)(F)F)n[nH]2)cc1` [Example 203, 5-(N-thiazol-2-ylsulfamoyl)-2-(4-(3-(trifluoromethyl)-1H-pyrazol-5-yl)phenoxy)benzamide] yielded an IC50 of 7480 nM. In the case of `O=S(=O)(Nc1ncns1)c1ccc(Oc2ccn(Cc3ccc(Cl)cc3)n2)c(C(F)(F)F)c1` [Example 204, 4-{[1-(4-chlorobenzyl)-1H-pyrazol-3-yl]oxy}-N-1,2,4-thiadiazol-5-yl-3-(trifluoromethyl)benzenesulfonamide], the IC50 is reported as 3140 nM.
